Assay results from patent US20120071397A1, “Methods for Hematopoietic Stem Cell Transplantation” (University of Southern California, priority 2010, published 2012).

Test system: C57Bl/6 mice transplanted after myeloablation by total body irradiation (TBI)
Experiment: Survival of mice after syngeneic bone marrow transplant following myeloablation by total body irradiation, with suspected norovirus infection
Format: in vivo
Details: 500 μg/kg/day subcutaneous, FIG. 1
Procedure: FIG. 1. C57Bl/6 mice (n=40/group) were transplanted after myeloablation by total body irradiation (TBI) from Saline or A(1-7) treated donors and received saline or A(1-7) after transplant.
[…] mice underwent […] in split doses separated by 3 hours. Two hours after TBI, the mice received 2×10^6 syngeneic bone marrow cells by intravenous injection. For treatment, either donors (14 days prior to donation), recipients (starting on the day of transplant) or both received 500 μg/kg/day A(1-7) by subcutaneous injection During bone marrow transplant (BMT), recipients are immune suppressed due to myeloablation. Mice are normally kept in pathogen-free environments during BMT to reduce mortality due to infection.

Asp-Arg-Val-Tyr-Ile-His-Pro (DRVYIHP) [A(1-7)]
survival (both donor and recipient treated): all surviving
survival (treatment of either donor (14 days prior to donation), recipient (starting on day of transplant) or both): improved survival
